According to patent US20230295200A1 (REGENTS OF THE UNIVERSITY OF MICHIGAN, priority 2022, published 2023):

What was measured:
STAT6 protein = biological target: T1, STAT6 protein (Homo sapiens, UniProt P42226); test: Fluorescence polarization (FP) binding assay, STAT6; conditions: FP competition, 5 nM fluorescein-labeled tracer, 200 nM protein, PBS pH7.4; read-out: Binding STAT6
T1 sequence (P42226 1-847): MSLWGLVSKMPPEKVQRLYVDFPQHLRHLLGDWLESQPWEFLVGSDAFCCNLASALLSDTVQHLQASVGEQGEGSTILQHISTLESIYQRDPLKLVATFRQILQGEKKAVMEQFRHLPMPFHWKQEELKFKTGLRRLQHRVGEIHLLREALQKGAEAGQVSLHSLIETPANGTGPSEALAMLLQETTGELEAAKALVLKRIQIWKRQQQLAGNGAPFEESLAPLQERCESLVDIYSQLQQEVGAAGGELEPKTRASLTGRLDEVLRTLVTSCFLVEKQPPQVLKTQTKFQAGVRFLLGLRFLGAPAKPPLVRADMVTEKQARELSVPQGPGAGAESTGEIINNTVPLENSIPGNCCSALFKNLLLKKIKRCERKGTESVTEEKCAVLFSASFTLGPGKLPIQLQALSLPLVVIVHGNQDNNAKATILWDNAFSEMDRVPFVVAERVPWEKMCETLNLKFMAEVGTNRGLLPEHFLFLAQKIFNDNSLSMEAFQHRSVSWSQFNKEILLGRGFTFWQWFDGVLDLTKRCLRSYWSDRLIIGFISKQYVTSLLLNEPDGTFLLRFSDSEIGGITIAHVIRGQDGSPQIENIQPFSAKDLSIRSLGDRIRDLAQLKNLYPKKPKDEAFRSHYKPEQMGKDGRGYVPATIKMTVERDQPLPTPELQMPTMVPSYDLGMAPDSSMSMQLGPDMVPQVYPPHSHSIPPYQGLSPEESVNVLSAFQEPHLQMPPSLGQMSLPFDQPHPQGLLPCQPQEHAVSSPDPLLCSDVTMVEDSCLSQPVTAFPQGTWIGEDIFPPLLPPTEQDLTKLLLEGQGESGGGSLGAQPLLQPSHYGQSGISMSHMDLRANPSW
Summary of the method: (§1)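 Tracer (fluorescein-labeled, 5 nM) was mixed with 200 nM STAT5 and/or STAT6 in PBS pH 7.4 plus 0.01% BGG, 0.01% Tween-20, 2 mM DTT. After 15 min shaking and 1 h at room temperature to equilibrium, polarization was measured and constants derived by nonlinear fitting.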

STAT5A = biological target: T2, STAT5A (Homo sapiens, UniProt P42229); test: Fluorescence polarization (FP) binding assay, STAT5A; conditions: FP competition, 5 nM fluorescein-labeled tracer, 200 nM protein, PBS pH7.4
T2 sequence (P42229 1-794): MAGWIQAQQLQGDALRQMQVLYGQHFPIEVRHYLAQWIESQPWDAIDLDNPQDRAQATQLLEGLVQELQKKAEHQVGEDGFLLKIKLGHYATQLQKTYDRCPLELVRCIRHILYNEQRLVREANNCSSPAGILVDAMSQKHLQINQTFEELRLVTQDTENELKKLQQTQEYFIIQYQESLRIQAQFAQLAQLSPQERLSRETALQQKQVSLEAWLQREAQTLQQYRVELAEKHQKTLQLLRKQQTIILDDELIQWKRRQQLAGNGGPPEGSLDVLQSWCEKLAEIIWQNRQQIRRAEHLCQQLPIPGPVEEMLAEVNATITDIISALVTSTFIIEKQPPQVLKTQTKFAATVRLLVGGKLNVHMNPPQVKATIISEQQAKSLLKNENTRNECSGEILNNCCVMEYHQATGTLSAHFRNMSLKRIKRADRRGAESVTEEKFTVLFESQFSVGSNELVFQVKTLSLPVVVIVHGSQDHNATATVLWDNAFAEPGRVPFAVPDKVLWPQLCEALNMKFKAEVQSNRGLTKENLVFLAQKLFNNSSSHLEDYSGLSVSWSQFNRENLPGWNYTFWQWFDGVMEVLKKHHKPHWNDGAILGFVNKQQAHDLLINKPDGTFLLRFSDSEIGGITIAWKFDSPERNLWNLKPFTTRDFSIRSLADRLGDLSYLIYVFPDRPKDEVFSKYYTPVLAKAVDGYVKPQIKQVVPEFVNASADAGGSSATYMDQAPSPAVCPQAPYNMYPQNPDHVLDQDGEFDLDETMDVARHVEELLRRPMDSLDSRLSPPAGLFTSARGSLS
Summary of the method: as §1

Ki (STAT6 protein) [nM]	Ki (STAT5A) [nM]	SMILES
1000 to 10000	1000 to 10000	CC(=O)N1CC[C@H]2CC[C@@H](C(=O)Nc3ncc(-c4ccccc4)s3)N2C(=O)[C@@H](NC(=O)c2cc3cc(C(F)(F)P(=O)(O)O)ccc3s2)C1 [Compound 165, ((2-(((5S,8S,10aR)-3-acetyl-6-oxo-8-((5-phenylthiazol-2-yl)carbamoyl)decahydropyrrolo[1,2-a][1,5]diazocin-5-yl)carbamoyl)benzo[b]thiophen-5-yl)difluoromethyl)phosphonic acid]
1000 to 10000	> 10000	CC(=O)N1CCN(C(=O)[C@@H]2CCCN2C(=O)[C@@H](NC(=O)c2cc3cc(C(F)(F)P(=O)(O)O)ccc3s2)C(C)(C)C)C[C@H]1c1ccccc1 [Compound 166, ((2-(((S)-1-((S)-2-((R)-4-acetyl-3-phenylpiperazine-1-carbonyl)pyrrolidin-1-yl)-3,3-dimethyl-1-oxobutan-2-yl)carbamoyl)benzo[b]thiophen-5-yl)difluoromethyl)phosphonic acid]
1000 to 10000	> 10000	CC(=O)N1CCN(C(=O)[C@@H]2CCCN2C(=O)[C@@H](NC(=O)c2cc3cc(C(F)(F)P(=O)(O)O)ccc3s2)C(C)(C)C)C[C@@H]1c1ccccc1 [Compound 167, ((2-(((S)-1-((S)-2-((S)-4-acetyl-3-phenylpiperazine-1-carbonyl)pyrrolidin-1-yl)-3,3-dimethyl-1-oxobutan-2-yl)carbamoyl)benzo[b]thiophen-5-yl)difluoromethyl)phosphonic acid]
1000 to 10000	> 10000	CC(C)(C)[C@H](NC(=O)c1cc2cc(C(F)(F)P(=O)(O)O)ccc2s1)C(=O)N1CCC[C@H]1C(=O)N1CCN(S(C)(=O)=O)[C@H](c2ccccc2)C1 [Compound 168, ((2-(((S)-3,3-dimethyl-1-((S)-2-((R)-4-(methylsulfonyl)-3-phenylpiperazine-1-carbonyl)pyrrolidin-1-yl)-1-oxobutan-2-yl)carbamoyl)benzo[b]thiophen-5-yl)difluoromethyl)phosphonic acid]
1000 to 10000	> 10000	CC(C)(C)[C@H](NC(=O)c1cc2cc(C(F)(F)P(=O)(O)O)ccc2s1)C(=O)N1CCC[C@H]1C(=O)N1CCN(S(C)(=O)=O)[C@@H](c2ccccc2)C1 [Compound 169, ((2-(((S)-3,3-dimethyl-1-((S)-2-((S)-4-(methylsulfonyl)-3-phenylpiperazine-1-carbonyl)pyrrolidin-1-yl)-1-oxobutan-2-yl)carbamoyl)benzo[b]thiophen-5-yl)difluoromethyl)phosphonic acid]
100 to 1000	1000 to 10000	CC(=O)N1CCN(C(=O)[C@@H](NC(=O)c2cc3cc(C(F)(F)P(=O)(O)O)ccc3s2)C(C)(C)C)[C@H](C(=O)N2CCO[C@H](c3ccccc3)C2)C1 [Compound 170, ((2-(((S)-1-((S)-4-acetyl-2-((R)-2-phenylmorpholine-4-carbonyl)piperazin-1-yl)-3,3-dimethyl-1-oxobutan-2-yl)carbamoyl)benzo[b]thiophen-5-yl)difluoromethyl)phosphonic acid]
1000 to 10000	> 10000	CC(=O)N1CCN(C(=O)[C@@H](NC(=O)c2cc3cc(C(F)(F)P(=O)(O)O)ccc3s2)C(C)(C)C)[C@H](C(=O)N2CCO[C@@H](c3ccccc3)C2)C1 [Compound 171, ((2-(((S)-1-((S)-4-acetyl-2-((S)-2-phenylmorpholine-4-carbonyl)piperazin-1-yl)-3,3-dimethyl-1-oxobutan-2-yl)carbamoyl)benzo[b]thiophen-5-yl)difluoromethyl)phosphonic acid]
100 to 1000	1000 to 10000	CC(=O)N1CCN(C(=O)[C@@H](NC(=O)c2cc3cc(C(F)(F)P(=O)(O)O)ccc3s2)C(C)(C)C)[C@H](C(=O)N2CCC[C@H](c3ccccc3)C2)C1 [Compound 175, ((2-(((S)-1-((S)-4-acetyl-2-((R)-3-phenylpiperidine-1-carbonyl)piperazin-1-yl)-3,3-dimethyl-1-oxobutan-2-yl)carbamoyl)benzo[b]thiophen-5-yl)difluoromethyl)phosphonic acid]
1000 to 10000	1000 to 10000	CC(=O)N1CCN(C(=O)[C@@H](NC(=O)c2cc3cc(C(F)(F)P(=O)(O)O)ccc3s2)C(C)(C)C)[C@H](C(=O)N2CC[C@H](c3ccccc3)C2)C1 [Compound 176, ((2-(((S)-1-((S)-4-acetyl-2-((R)-3-phenylpyrrolidine-1-carbonyl)piperazin-1-yl)-3,3-dimethyl-1-oxobutan-2-yl)carbamoyl)benzo[b]thiophen-5-yl)difluoromethyl)phosphonic acid]
1000 to 10000	> 10000	CC(=O)N1CCN(C(=O)[C@@H](NC(=O)c2cc3cc(C(F)(F)P(=O)(O)O)ccc3s2)C(C)(C)C)[C@H](C(=O)N2CC[C@@H](c3ccccc3)C2)C1 [Compound 177, ((2-(((S)-1-((S)-4-acetyl-2-((S)-3-phenylpyrrolidine-1-carbonyl)piperazin-1-yl)-3,3-dimethyl-1-oxobutan-2-yl)carbamoyl)benzo[b]thiophen-5-yl)difluoromethyl)phosphonic acid]
100 to 1000	1000 to 10000	CC(=O)N1CC[C@H]2CC[C@@H](C(=O)N3CCS(=O)(=O)C(c4ccccc4)C3)N2C(=O)[C@@H](NC(=O)c2cc3cc(C(F)(F)P(=O)(O)O)ccc3s2)C1 (stereo partly drawn) [Compound 178, ((2-(((5S,8S,10aR)-3-acetyl-8-(1,1-dioxido-2-phenylthiomorpholine-4-carbonyl)-6-oxodecahydropyrrolo[1,2-a][1,5]diazocin-5-yl)carbamoyl)benzo[b]thiophen-5-yl)difluoromethyl)phosphonic acid]
100 to 1000	1000 to 10000	CC(C)(C)[C@H](NC(=O)c1cc2cc(C(F)(F)P(=O)(O)O)ccc2s1)C(=O)N1CCCC[C@H]1C(=O)N1CCO[C@H](c2ccccc2)C1 [Compound 179, ((2-(((S)-3,3-dimethyl-1-oxo-1-((S)-2-((R)-2-phenylmorpholine-4-carbonyl)piperidin-1-yl)butan-2-yl)carbamoyl)benzo[b]thiophen-5-yl)difluoromethyl)phosphonic acid]
100 to 1000	1000 to 10000	CC(C)(C)[C@H](NC(=O)c1cc2cc(C(F)(F)P(=O)(O)O)ccc2s1)C(=O)N1CCCC[C@H]1C(=O)N1CCC[C@H](c2ccccc2)C1 [Compound 180, ((2-(((S)-3,3-dimethyl-1-oxo-1-((S)-2-((R)-3-phenylpiperidine-1-carbonyl)piperidin-1-yl)butan-2-yl)carbamoyl)benzo[b]thiophen-5-yl)difluoromethyl)phosphonic acid]
> 10000	> 10000	CC(C)(C)[C@H](NC(=O)c1cc2cc(C(F)(F)P(=O)(O)O)ccc2s1)C(=O)N1CCCC[C@H]1C(=O)N1Cc2ccccc2C1 [Compound 181, (difluoro(2-(((S)-1-((S)-2-(isoindoline-2-carbonyl)piperidin-1-yl)-3,3-dimethyl-1-oxobutan-2-yl)carbamoyl)benzo[b]thiophen-5-yl)methyl)phosphonic acid]
1000 to 10000	100 to 1000	CC(C)(C)[C@H](NC(=O)c1cc2cc(C(F)(F)P(=O)(O)O)ccc2s1)C(=O)N1CCCC[C@H]1C(=O)Nc1ncc(-c2ccccc2)s1 [Compound 182, ((2-(((S)-3,3-dimethyl-1-oxo-1-((S)-2-((5-phenylthiazol-2-yl)carbamoyl)piperidin-1-yl)butan-2-yl)carbamoyl)benzo[b]thiophen-5-yl)difluoromethyl)phosphonic acid]
